Test results published in PubChem BioAssay AID1963854 (Molecular Pharmacology Branch, DTP, NCI, 2024).
Where “and” joins values, the source holds several entries; their conditions need not be identical. Equal values may be shown once.

System: 186277-243-T-J2-PDC complex spheroid viability
Experiment: Anticancer human tumor 186277-243-T-J2-PDC patient-derived colon adenocarcinoma cell line growth inhibition [POLQ]
Details: for viability, T/C: stronger effect = lower value
Procedure: Multicellular complex tumor spheroid response to Polymerase (POL) inhibitors (novobiocin, ART-558, RP6685) in combination with a variety of drugs and investigational agents in selected tumor cell lines
The POL inhibitors (novobiocin, ART-558, and RP6685) were evaluated both individually and in combination with standard of care and investigational anticancer small molecules within a complex spheroid model of solid tumors. . Complex spheroids include a stromal component modeled by human endothelial cells (HUVEC) and fibroblasts modeled by human mesenchymal stem cells (MSCs). The concentration ranges selected for each drug and investigational agent were based upon clinically achievable concentrations if the clinical Cmax of the agent was known.
Compounds. The drugs and investigational agents: novobiocin (NSC847541), ART-558 (NSC835418), RP-6685 (NSC848927), peposertib (NSC802822), ceralasertib (NSC780249), elimusertib (NSC800525), camonsertib (NSC841442), AZD-1390 (NSC803789), olaparib (NSC753686), talazoparib (NSC767125), rucaparib (NSC756644), sotorasib (NSC818433), MRTX-1133 (NSC836407), SN-38 (NSC673596), topotecan (NSC609699), epotoside (NSC141540), doxorubicin (NSC123127), gemcitabine (NSC613327), 5-fluorouracil (NSC19893), paclitaxel (NSC125973), vemurafenib (NSC761431), MSA-2 (NSC828583), SN-011 (NSC837082), adavosertib (NSC754352), prexasertib (NSC758257), carboplatin (NSC241240) and oxaliplatin (NSC266046), were obtained from the National Cancer Institute (NCI) Developmental Therapeutics Program Chemical Repository (21). The FDA-approved anticancer drug set is available from the Developmental Therapeutics Program at https://dtp.cancer.gov/organization/dscb/obtaining/. […] The stock solutions were prepared in dimethyl sulfoxide (DMSO, Sigma-Aldrich, St. Louis, MO, cat. D2650), except for the platinum compounds which were prepared in saline (Quality Biological, Gaithersburg, MD, cat. 114-055-101), at 800-fold the tested concentration and stored at -70 degrees C prior to their use. All drugs and investigational agents were tested over a range starting from a high concentration at or near the clinical Cmax and decreasing in half-log increments. If the clinical Cmax for an agent had not been determined, the highest concentration tested was 10 microM, except for SN-38, which was tested at a high concentration of 1 microM.
Cell Culture. All cells were maintained in an incubator at 37 degrees C and 5% CO2 with 95% humidity. The PDC lines were cultured according to standard operating procedures established by the NCI PDMR (https://pdmr.cancer.gov). Table 3 of the manuscript, lists the cell lines along with the number of the three cell types plated to form the mct-spheroids and media for tumor cell growth. After thawing, all PDC lines, except 997537-175-T-J1-PDC and 415267-285-R-J2-PDC, were cultured in Matrigel-coated flasks prepared with a working solution of 1X Ham's F-12 nutrient mix, without supplementation (Thermo Fisher Scientific, cat. 11765054), 100 U/mL penicillin-streptomycin (Thermo Fisher Scientific, cat. 15140122), and 2.5% Matrigel (Corning Inc., Corning, NY, cat. 354248) for the first three passages. The two PDC lines 997537-175-T-J1-PDC and 415267-285-R-J2-PDC were cultured on uncoated flasks. The 857933-349-R-J2-PDC line was cultured in 6C/Colon 1B media containing advanced DMEM/F-12 (Thermo Fisher Scientific, cat. 12634028), 10 mM HEPES (Thermo Fisher Scientific, cat. 15630080), 1X GlutaMAX supplement (Thermo Fisher Scientific, cat. 35050061), 0.1 mg/mL primocin (InvivoGen, San Diego, CA, cat. ant-pm-2), 10% defined fetal bovine serum, heat inactivated (HyClone Laboratories Inc., Logan, UT, cat. SH30070.03HI), 50% L-WRN conditioned media (ATCC, cat. CRL-3276), 1.25 mM N-Acetyl-L-cysteine (Sigma-Aldrich, cat. A9165), 10 mM nicotinamide (Sigma-Aldrich, cat. N0636), 1X B-27 supplement (Thermo Fisher Scientific, cat. 17504044), 1X N-2 supplement (Thermo Fisher Scientific, cat. […]

[1] = curve of first compound, second compound 0.0316 µM
[2] = curve of first compound, second compound 0.1 µM
[3] = curve of first compound, second compound 0.316 µM
[4] = curve of first compound, second compound 1 µM
[5] = curve of first compound, second compound 3.16 µM
[6] = curve of first compound, second compound 10 µM
[7] = second compound 0.0316 µM, first compound 0.0316 µM
[8] = second compound 0.0316 µM, first compound 0.1 µM
[9] = second compound 0.0316 µM, first compound 0.316 µM
[10] = second compound 0.0316 µM, first compound 1 µM
[11] = second compound 0.0316 µM, first compound 3.16 µM
[12] = second compound 0.0316 µM, first compound 10 µM
[13] = second compound 0.1 µM, first compound 0.0316 µM
[14] = second compound 0.1 µM, first compound 0.1 µM
[15] = second compound 0.1 µM, first compound 0.316 µM
[16] = second compound 0.1 µM, first compound 1 µM
[17] = second compound 0.1 µM, first compound 3.16 µM
[18] = second compound 0.1 µM, first compound 10 µM
[19] = second compound 0.316 µM, first compound 0.0316 µM
[20] = second compound 0.316 µM, first compound 0.1 µM
[21] = second compound 0.316 µM, first compound 0.316 µM
[22] = second compound 0.316 µM, first compound 1 µM
[23] = second compound 0.316 µM, first compound 3.16 µM
[24] = second compound 0.316 µM, first compound 10 µM
[25] = second compound 1 µM, first compound 0.0316 µM
[26] = second compound 1 µM, first compound 0.1 µM
[27] = second compound 1 µM, first compound 0.316 µM
[28] = second compound 1 µM, first compound 1 µM
[29] = second compound 1 µM, first compound 3.16 µM
[30] = second compound 1 µM, first compound 10 µM
[31] = second compound 3.16 µM, first compound 0.0316 µM
[32] = second compound 3.16 µM, first compound 0.1 µM
[33] = second compound 3.16 µM, first compound 0.316 µM
[34] = second compound 3.16 µM, first compound 1 µM
[35] = second compound 3.16 µM, first compound 3.16 µM
[36] = second compound 3.16 µM, first compound 10 µM
[37] = second compound 10 µM, first compound 0.0316 µM
[38] = second compound 10 µM, first compound 0.1 µM
[39] = second compound 10 µM, first compound 0.316 µM
[40] = second compound 10 µM, first compound 1 µM
[41] = second compound 10 µM, first compound 3.16 µM
[42] = second compound 10 µM, first compound 10 µM
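Note: spheroids exposed to compounds for seven days.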
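Throughout, for viability, T/C: 100% = DMSO vehicle control viability.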

Work on `CCc1cc2c(N3CCc4c(cc(Cn5ccnc5)cc4-c4cn(C)nc4C(F)(F)F)C3=O)cc(C)nc2c(OC)n1` + Nc1ccc(C#CCN(C(=O)Cc2ncc(C(F)(F)F)cc2C(F)(F)F)c2ccc(F)cc2)nn1 yielded an IC50 [1] greater than 10000 nM, an IC50 [2] greater than 10000 nM and an IC50 [3] greater than 10000 nM. It also gave an IC50 [4] greater than 10000 nM, an IC50 [5] greater than 10000 nM and an IC50 [6] greater than 10000 nM. For the same compound, the viability, T/C [7] was 97%, the viability, T/C [8] was 104% and the viability, T/C [9] was 96%. For the same compound, the viability, T/C [10] was 117%, the viability, T/C [11] was 119% and the viability, T/C [12] was 95.8%. It also gave a viability, T/C [13] of 95.3%, a viability, T/C [14] of 89.4% and a viability, T/C [15] of 96.9%. The viability, T/C [16] was 108%, the viability, T/C [17] was 124% and the viability, T/C [18] was 97.2%. For the same compound, the viability, T/C [19] was 107%, the viability, T/C [20] was 89.2% and the viability, T/C [21] was 96.6%. It also gave a viability, T/C [22] of 101%, a viability, T/C [23] of 89.7% and a viability, T/C [24] of 86%. The viability, T/C [25] was 95.1%, the viability, T/C [26] was 106% and the viability, T/C [27] was 101%. For the same compound, the viability, T/C [28] was 98.7%, the viability, T/C [29] was 114% and the viability, T/C [30] was 90.6%. It also gave a viability, T/C [31] of 104%, a viability, T/C [32] of 88.4% and a viability, T/C [33] of 91.8%. It also gave a viability, T/C [34] of 87.6%, a viability, T/C [35] of 109% and a viability, T/C [36] of 87.3%. It also gave a viability, T/C [37] of 102%, a viability, T/C [38] of 95.5% and a viability, T/C [39] of 94.1%. For the same compound, the viability, T/C [40] was 106%, the viability, T/C [41] was 95.6% and the viability, T/C [42] was 76.2%.

In the case of `CC1COCCN1c1cc(-c2ccnn2C)c2ccnc(-c3ccn[nH]3)c2n1` (stereo unspecified) + Nc1ccc(C#CCN(C(=O)Cc2ncc(C(F)(F)F)cc2C(F)(F)F)c2ccc(F)cc2)nn1, the IC50 [1] is reported as 74 nM, the IC50 [2] is reported as 75.2 nM and the IC50 [3] is reported as 76.3 nM. For the same compound, the IC50 [4] was 76.4 nM, the IC50 [5] was 75.8 nM and the IC50 [6] was 71.9 nM. It also gave a viability, T/C [7] of 113%, a viability, T/C [8] of 27.5% and a viability, T/C [9] of 10.3%. For the same compound, the viability, T/C [10] was 7.67%, the viability, T/C [11] was 6.65% and the viability, T/C [12] was 7.86%. It also gave a viability, T/C [13] of 115%, a viability, T/C [14] of 28.8% and a viability, T/C [15] of 11%. For the same compound, the viability, T/C [16] was 7.38%, the viability, T/C [17] was 6.86% and the viability, T/C [18] was 9.94%. The viability, T/C [19] was 126%, the viability, T/C [20] was 26.8% and the viability, T/C [21] was 9.95%. It also gave a viability, T/C [22] of 7.12%, a viability, T/C [23] of 6.81% and a viability, T/C [24] of 9.08%. For the same compound, the viability, T/C [25] was 124%, the viability, T/C [26] was 27.5% and the viability, T/C [27] was 9.34%. The viability, T/C [28] was 7.54%, the viability, T/C [29] was 6.88% and the viability, T/C [30] was 9.31%. The viability, T/C [31] was 123%, the viability, T/C [32] was 26.7% and the viability, T/C [33] was 9.31%. For the same compound, the viability, T/C [34] was 6.61%, the viability, T/C [35] was 8.2% and the viability, T/C [36] was 7.84%. It also gave a viability, T/C [37] of 118%, a viability, T/C [38] of 22.5% and a viability, T/C [39] of 9.8%. It also gave a viability, T/C [40] of 7.22%, a viability, T/C [41] of 6.51% and a viability, T/C [42] of 7.63%.

In the case of `COc1cc(C2c3cc4c(cc3C(OC3OC5COC(C)OC5C(O)C3O)C3COC(=O)C23)OCO4)cc(OC)c1O` (stereo unspecified), the viability, T/C (compound 0.0316 µM) is reported as 99.9% and 94.4% and 99.1%, the viability, T/C (compound 0.1 µM) is reported as 111% and 100% and 118% and the viability, T/C (compound 0.316 µM) is reported as 82.8% and 130% and 71.7%. For the same compound, the viability, T/C (compound 1 µM) was 48.1% and 89.2% and 45.2%, the viability, T/C (compound 3.16 µM) was 30.1% and 59.8% and 27.6% and the viability, T/C (compound 10 µM) was 14.3% and 30.9% and 11.9%. The IC50 (curve of compound) was 989 nM and 4470 nM and 810 nM.
